Experimental data reported in ChEMBL document CHEMBL2346531, “Investigation of σ receptors agonist/antagonist activity through N-(6-methoxytetralin-1-yl)- and N-(6-methoxynaphthalen-1-yl)alkyl derivatives of polymethylpiperidines” (Bioorg Med Chem, 2013).
Active and inactive are the calls of the source. No cut-off for these calls is given here.

Legend:
[1] = target: Sigma non-opioid intracellular receptor 1 (Homo sapiens) (UniProt Q99720); experiment: Activity at human sigma 1 receptor transfected in human MCF7 cells assessed as Ca2+ mobilization by fluorescence analysis; type: cell-based
MCF7 [2] = experiment: Antiproliferative activity against human MCF7 cells transfected with human sigma1 receptor after 48 hrs by MTT assay; type: functional, cell-based; design: Activity: concentration or dose not given beside the values; conditions: for EC50: Homo sapiens, MCF7, 48 h
[3] = target: Sigma non-opioid intracellular receptor 1 (Cavia porcellus, UniProt Q60492); experiment: Displacement of [3H]pentazocine from sigma 1 receptor in Dunkin guinea pig brain membrane without cerebellum by competition binding assay; type: cell membranes
MCF7 [4] = experiment: Activity at sigma 2 receptor in human MCF7 cells assessed as Ca2+ mobilization by fluorescence analysis; type: cell-based
[5] = Selectivity ratio of Ki for sigma 2 receptor in Wistar Hannover rat liver membrane to Ki for sigma 1 receptor in Dunkin guinea pig brain membrane without cerebellum; type: cell membranes
[6] = Displacement of [3H]DTG from sigma 2 receptor in Wistar Hannover rat liver membrane by competition binding assay; type: cell membranes
MCF7 [7] = experiment: Agonist activity at sigma 2 receptor in human MCF7 cells assessed as decrease in bradykinin-induced Ca2+ response at 1 uM pretreated for 10 mins measured every 5 secs by fluorescence analysis; type: cell-based
[8] = target: Sigma non-opioid intracellular receptor 1 (Homo sapiens) (UniProt Q99720); experiment: Agonist activity at human sigma 1 receptor transfected in human MCF7 cells assessed as increase in bradykinin-triggered Ca2+ response at 1 uM pretreated for 10 mins measured every 5 secs by fluorescence analysis; type: cell-based
MCF7 [9] = experiment: Antiproliferative activity against human MCF7 cells after 48 hrs by MTT assay; type: functional, cell-based; conditions: for EC50: Homo sapiens, MCF7, 48 h
MCF7 [10] = experiment: Agonist activity at sigma 2 receptor in human MCF7 cells assessed as decrease in bradykinin-induced Ca2+ response at 1 uM pretreated for 10 mins measured every 5 secs by fluorescence analysis in presence of 10 uM sigma 2 receptor antagonist, AC927; type: cell-based
MCF7 [11] = experiment: Activity at sigma 2 receptor in human MCF7 cells assessed as bardykinin-triggered Ca2+ mobilization at 1 uM pretreated for 10 mins measured every 5 secs by fluorescence analysis; type: cell-based
[12] = target: Sigma non-opioid intracellular receptor 1 (Homo sapiens) (UniProt Q99720); experiment: Antagonist activity at human sigma 1 receptor transfected in human MCF7 cells assessed as decrease in bradykinin-triggered Ca2+ response at 1 uM pretreated for 10 mins measured every 5 secs by fluorescence analysis in presence of 1 uM sigma 1 receptor agonist, (+)-pentazocine; type: cell-based
MCF7 [13] = experiment: Antagonist activity at sigma 2 receptor in human MCF7 cells assessed as effect on bradykinin-triggered Ca2+ response at 1 uM pretreated for 10 mins measured every 5 secs by fluorescence analysis; type: cell-based
[14] = target: Sigma non-opioid intracellular receptor 1 (Homo sapiens) (UniProt Q99720); experiment: Antagonist activity at human sigma 1 receptor transfected in human MCF7 cells assessed as decrease in bradykinin-triggered Ca2+ response at 1 uM pretreated for 10 mins measured every 5 secs by fluorescence analysis; type: cell-based
[15] = target: Sigma non-opioid intracellular receptor 1 (Homo sapiens) (UniProt Q99720); experiment: Agonist activity at human sigma 1 receptor transfected in human MCF7 cells assessed as increase in bradykinin-triggered Ca2+ response at 1 uM pretreated for 10 mins measured every 5 secs by fluorescence analysis in presence of 1 uM sigma 1 receptor antagonist, BD1063; type: cell-based
MCF7 [16] = experiment: Antagonist activity at sigma 2 receptor in human MCF7 cells assessed as effect on bradykinin-triggered Ca2+ response at 10 uM pretreated for 10 mins measured every 5 secs by fluorescence analysis; type: cell-based

Chain of Sigma non-opioid intracellular receptor 1 (Homo sapiens) (Q99720 whole entry): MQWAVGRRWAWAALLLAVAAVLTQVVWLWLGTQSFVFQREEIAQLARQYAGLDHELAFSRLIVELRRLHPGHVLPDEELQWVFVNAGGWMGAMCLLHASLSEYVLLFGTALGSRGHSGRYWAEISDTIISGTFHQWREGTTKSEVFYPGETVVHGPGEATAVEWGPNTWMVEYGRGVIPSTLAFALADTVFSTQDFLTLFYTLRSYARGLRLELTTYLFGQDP
Chain of Sigma non-opioid intracellular receptor 1 (Q60492 whole entry): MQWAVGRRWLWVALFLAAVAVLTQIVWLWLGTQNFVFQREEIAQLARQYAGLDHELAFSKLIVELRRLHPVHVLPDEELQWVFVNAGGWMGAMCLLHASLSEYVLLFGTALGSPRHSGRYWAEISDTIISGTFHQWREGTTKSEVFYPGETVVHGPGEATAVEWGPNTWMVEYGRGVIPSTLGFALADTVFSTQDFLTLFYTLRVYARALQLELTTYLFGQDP

SMILES | EC50 (MCF7 [2]) | Ki [3] | Ratio Ki [5] | Ki [6] | EC50 (MCF7 [9]) | other results
COc1ccc2c(CCCCN3[C@H](C)CCC[C@@H]3C)cccc2c1.Cl | 100 µM | 0.0185 µM | 0.7 | 0.0138 µM | 100 µM | Activity [1]: inactive; Activity (MCF7 [2]): 12%; Activity (MCF7 [4]): inactive; inhibition (MCF7 [7]): Active; Activity [8]: Active; Activity (MCF7 [9]): 14%; inhibition (MCF7 [10]): inactive
COc1ccc2c(c1)CCCC2CCCN1C(C)(C)CCCC1(C)C (stereo not drawn) | > 100 µM | 0.373 µM | 1.7 | 0.641 µM | > 100 µM | –
COc1ccc2c(CCCCN3CCCCC3(C)C)cccc2c1 | 100 µM | – | 1.3 | 0.0286 µM | 100 µM | Activity (MCF7 [2]): 18%; Activity (MCF7 [9]): 19%
CC(C)=CCN1CC[C@]2(C)c3cc(O)ccc3C[C@H]1[C@H]2C [(+)-PENTAZOCINE] | > 100 µM | – | – | – | > 100 µM | Activity (MCF7 [11]): inactive
Cc1ccccc1NC(=N)Nc1ccccc1C [DITOLYLGUANIDINE] | – | – | – | 0.0302 µM | – | –
COc1ccc2c(c1)CCCC2CCCCN1[C@H](C)CCC[C@@H]1C (stereo partly drawn) | 100 µM | 0.00867 µM | 1.3 | 0.0111 µM | > 100 µM | inhibition [12]: inactive; Activity [1]: inactive; Activity (MCF7 [2]): 14%; Activity (MCF7 [4]): inactive; Activity (MCF7 [13]): Active; inhibition [14]: Active
COc1cccc2c1CCCC2CCCN1CCN(C2CCCCC2)CC1 (stereo not drawn) | 31.2 µM | – | – | – | 27.4 µM | –
COc1ccc2c(CCCN3CCCCC3(C)C)cccc2c1 | > 100 µM | – | 0.09 | 0.094 µM | > 100 µM | –
COc1ccc2c(CCCN3C(C)(C)CCCC3(C)C)cccc2c1 | > 100 µM | 0.236 µM | 2.1 | 0.495 µM | > 100 µM | –
COc1ccc2c(CCCCN3C(C)(C)CCCC3(C)C)cccc2c1 | > 100 µM | 0.0886 µM | 1 | 0.0907 µM | > 100 µM | –
COc1ccc2c(c1)CCCC2CCCN1CCCCC1(C)C (stereo not drawn) | > 100 µM | – | 0.6 | 0.115 µM | > 100 µM | –
COc1ccc2c(CCCN3[C@H](C)CCC[C@@H]3C)cccc2c1 | > 100 µM | 0.00743 µM | 6.1 | 0.0454 µM | > 100 µM | Activity [1]: inactive; Activity [15]: inactive; Activity (MCF7 [4]): inactive; Activity (MCF7 [13]): Active; Activity [8]: Active
COc1ccc2c(c1)CCCC2CCCCN1CCCCC1(C)C (stereo not drawn) | 100 µM | – | 9 | 0.0295 µM | 100 µM | Activity (MCF7 [2]): 14%; Activity (MCF7 [9]): 20%
COc1ccc2c(c1)CCCC2CCCN1[C@H](C)CCC[C@@H]1C (stereo partly drawn) | > 100 µM | 0.11 µM | 0.8 | 0.0909 µM | > 100 µM | Activity [1]: inactive; Activity (MCF7 [4]): inactive; Activity (MCF7 [13]): Active; Activity [8]: Active
CN1CCN(CCc2ccc(Cl)c(Cl)c2)CC1 | 70 µM | – | – | – | > 100 µM | –
COc1ccc2c(c1)CCCC2CCCCN1C(C)(C)CCCC1(C)C (stereo not drawn) | > 100 µM | 0.0359 µM | 1.9 | 0.0698 µM | > 100 µM | –
c1ccc(CCN2CCCCC2)cc1 | > 100 µM | – | – | – | > 100 µM | Activity (MCF7 [16]): Active
